Laboratory results published in paper PMC4138103 (PLoS ONE, 2014).
Like-named read-outs stand apart in the source and are kept apart here.

Test system: Sprague-Dawley rats
Assay: Retinoid analyses in liver, serum and kidney
Format: in vivo, Rattus norvegicus
Conditions: for CED, Kidney all-trans RA amount / CED, Kidney all-trans RA concentration / CED, Kidney retinol amount / CED, Kidney retinol concentration / CED, Liver retinol amount / CED, Liver retinol concentration / CED, Liver retinyl esters amount / CED, Liver retinyl esters concentration / CED, Serum retinol concentration / CED-L, Kidney all-trans RA amount / CED-L, Kidney all-trans RA concentration / CED-L, Kidney retinol amount / CED-L, Kidney retinol concentration / CED-L, Liver retinol amount / CED-L, Liver retinol concentration / CED-L, Liver retinyl esters amount / CED-L, Liver retinyl esters concentration / CED-L, Serum retinol concentration / CED, Liver 9c-4o-13,14-dh-RA amount / CED, Liver 9c-4o-13,14-dh-RA concentration / CED-L, Liver 9c-4o-13,14-dh-RA amount / CED-L, Liver 9c-4o-13,14-dh-RA concentration / CED, Liver all-trans RA amount / CED, Liver all-trans RA concentration / CED-L, Liver all-trans RA amount / CED-L, Liver all-trans RA concentration / CED, Kidney retinyl esters amount / CED, Kidney retinyl esters concentration / CED-L, Kidney retinyl esters amount / CED-L, Kidney retinyl esters concentration: adipose tissue concentration based; for Emax: Rattus norvegicus, controls vs high dose according to the fitted model
Method: Retinoids in liver, serum, and kidney were analyzed according to Schmidt et al.. The polar retinoids 9-cis-retinoic acid (9-cis-RA), 13-cis-retinoic acid (13-cis-RA), 13-cis-4-oxo-retinoic acid (13-cis-4-o-RA), 9-cis-4-oxo-13,14-dihydro-retinoic acid (9-cis-4-o-13,14-dh-RA), all-trans retinoic acid (all-trans RA) and the apolar retinoids retinol and retinyl palmitate were extracted by a single liquid-extraction, separated from each other via solid-phase extraction using an aminopropyl phase, and then injected onto two different HPLC systems that were coupled with UV detection. […] The limits of detection (LOD) for all-trans RA and 9c-4o-13,14-dh-RA were 0.7 and 1.0 pmol/g tissue, and 0.3 and 0.6 pmol/ml serum, respectively. Retinol and retinyl palmitate were separated on a J'sphere ODS-H80 (4.6×150 mm, 4 µm particle size) obtained from YMC (Schermbeck, Germany), and were detected at 325 nm. The LOD for retinol and retinyl palmitate were 5.6 and 5.5 pmol/g tissue, and 4.2 and 4.2 pmol/ml serum, respectively.
Data were also analyzed using the BMD method, which is based on dose-response modeling of the full data set using a nested family of exponential and Hill models. The analyses were done on data of males and females combined, using sex as a covariate. […] In that case, different Critical Effect Doses (CEDs) and CEDs at the lowest bound of the confidence interval (CED-L) were generated for each sex. If no difference between sexes is detected, a CED and CED-Ls for the combined data is generated. However, this was also done if the curve fits are close, and separate analyses for males and females were then performed manually. CEDs and CED-Ls were calculated at the predefined Critical Effect Size (CES) of 5% (EFSA standard) or 10%.

Clc1cc(Cl)c(-c2cc(Cl)c(Cl)c(Cl)c2Cl)cc1Cl [PCB 180, 2,2′,3′,4,4′,5,5′-heptachlorobiphenyl]
CED, Kidney all-trans RA amount (F, CES 5%, model E2): 3290 µg/g lipid
CED, Kidney all-trans RA concentration (F, CES 5%, model E2): 2930 µg/g lipid
CED, Kidney retinol amount (F, CES 5%, model E2): 2240 µg/g lipid
CED, Kidney retinol concentration (F, CES 5%, model E2): 2060 µg/g lipid
CED, Liver retinol amount (F, CES 5%, model E2): 2840 µg/g lipid
CED, Liver retinol concentration (F, CES 5%, model E2): 1000 µg/g lipid
CED, Liver retinyl esters amount (F, CES 5%, model E2): 1620 µg/g lipid
CED, Liver retinyl esters concentration (F, CES 5%, model E2): 793 µg/g lipid
CED, Serum retinol concentration (F, CES 5%, model E2): 2470 µg/g lipid
CED-L, Kidney all-trans RA amount (F, CES 5%, model E2): 2092 µg/g lipid
CED-L, Kidney all-trans RA concentration (F, CES 5%, model E2): 2052 µg/g lipid
CED-L, Kidney retinol amount (F, CES 5%, model E2): 1398 µg/g lipid
CED-L, Kidney retinol concentration (F, CES 5%, model E2): 1346 µg/g lipid
CED-L, Liver retinol amount (F, CES 5%, model E2): 1476 µg/g lipid
CED-L, Liver retinol concentration (F, CES 5%, model E2): 762 µg/g lipid
CED-L, Liver retinyl esters amount (F, CES 5%, model E2): 1206 µg/g lipid
CED-L, Liver retinyl esters concentration (F, CES 5%, model E2): 670 µg/g lipid
CED-L, Serum retinol concentration (F, CES 5%, model E2): 1521 µg/g lipid
CED, Liver 9c-4o-13,14-dh-RA amount (F, CES 5%, model E4): 59.6 µg/g lipid
CED, Liver 9c-4o-13,14-dh-RA concentration (F, CES 5%, model E4): 55.5 µg/g lipid
CED-L, Liver 9c-4o-13,14-dh-RA amount (F, CES 5%, model E4): 37.4 µg/g lipid
CED-L, Liver 9c-4o-13,14-dh-RA concentration (F, CES 5%, model E4): 39.6 µg/g lipid
CED, Kidney all-trans RA amount (F, CES 10%, model E2): 6430 µg/g lipid
CED, Kidney all-trans RA concentration (F, CES 10%, model E2): 5720 µg/g lipid
CED, Kidney retinol amount (F, CES 10%, model E2): 4370 µg/g lipid
CED, Kidney retinol concentration (F, CES 10%, model E2): 4030 µg/g lipid
CED, Liver retinol amount (F, CES 10%, model E2): 5820 µg/g lipid
CED, Liver retinol concentration (F, CES 10%, model E2): 2060 µg/g lipid
CED, Liver retinyl esters amount (F, CES 10%, model E2): 3300 µg/g lipid
CED, Liver retinyl esters concentration (F, CES 10%, model E2): 1630 µg/g lipid
CED, Serum retinol concentration (F, CES 10%, model E2): 4820 µg/g lipid
CED-L, Kidney all-trans RA amount (F, CES 10%, model E2): 4088 µg/g lipid
CED-L, Kidney all-trans RA concentration (F, CES 10%, model E2): 4009 µg/g lipid
CED-L, Kidney retinol amount (F, CES 10%, model E2): 2731 µg/g lipid
CED-L, Kidney retinol concentration (F, CES 10%, model E2): 2630 µg/g lipid
CED-L, Liver retinol amount (F, CES 10%, model E2): 3032 µg/g lipid
CED-L, Liver retinol concentration (F, CES 10%, model E2): 1565 µg/g lipid
CED-L, Liver retinyl esters amount (F, CES 10%, model E2): 2477 µg/g lipid
CED-L, Liver retinyl esters concentration (F, CES 10%, model E2): 1375 µg/g lipid
CED-L, Serum retinol concentration (F, CES 10%, model E2): 2970 µg/g lipid
CED, Liver 9c-4o-13,14-dh-RA amount (F, CES 10%, model E4): 124 µg/g lipid
CED, Liver 9c-4o-13,14-dh-RA concentration (F, CES 10%, model E4): 115 µg/g lipid
CED-L, Liver 9c-4o-13,14-dh-RA amount (F, CES 10%, model E4): 77.9 µg/g lipid
CED-L, Liver 9c-4o-13,14-dh-RA concentration (F, CES 10%, model E4): 82.1 µg/g lipid
CED, Kidney retinol amount (M, CES 5%, model E2): 897 µg/g lipid
CED, Kidney retinol concentration (M, CES 5%, model E2): 863 µg/g lipid
CED, Liver all-trans RA amount (M, CES 5%, model E2): 95.1 µg/g lipid
CED, Liver all-trans RA concentration (M, CES 5%, model E2): 1920 µg/g lipid
CED, Liver retinol amount (M, CES 5%, model E2): 1860 µg/g lipid
CED, Liver retinyl esters amount (M, CES 5%, model E2): 620 µg/g lipid
CED-L, Kidney retinol amount (M, CES 5%, model E2): 638 µg/g lipid
CED-L, Kidney retinol concentration (M, CES 5%, model E2): 640 µg/g lipid
CED-L, Liver all-trans RA amount (M, CES 5%, model E2): 36.8 µg/g lipid
CED-L, Liver all-trans RA concentration (M, CES 5%, model E2): 1143 µg/g lipid
CED-L, Liver retinol amount (M, CES 5%, model E2): 1111 µg/g lipid
CED-L, Liver retinyl esters amount (M, CES 5%, model E2): 525 µg/g lipid
CED, Kidney retinyl esters amount (M, CES 5%, model E4): 38.8 µg/g lipid
CED, Kidney retinyl esters concentration (M, CES 5%, model E4): 42.2 µg/g lipid
CED, Liver retinol concentration (M, CES 5%, model E4): 31.2 µg/g lipid
CED, Liver retinyl esters concentration (M, CES 5%, model E4): 108 µg/g lipid
CED-L, Kidney retinyl esters amount (M, CES 5%, model E4): 12.5 µg/g lipid
CED-L, Kidney retinyl esters concentration (M, CES 5%, model E4): 13.6 µg/g lipid
CED-L, Liver retinol concentration (M, CES 5%, model E4): 18.8 µg/g lipid
CED-L, Liver retinyl esters concentration (M, CES 5%, model E4): 60.1 µg/g lipid
CED, Kidney retinol amount (M, CES 10%, model E2): 1750 µg/g lipid
CED, Kidney retinol concentration (M, CES 10%, model E2): 1690 µg/g lipid
CED, Liver all-trans RA amount (M, CES 10%, model E2): 196 µg/g lipid
CED, Liver all-trans RA concentration (M, CES 10%, model E2): 3750 µg/g lipid
CED, Liver retinol amount (M, CES 10%, model E2): 3820 µg/g lipid
CED, Liver retinyl esters amount (M, CES 10%, model E2): 1270 µg/g lipid
CED-L, Kidney retinol amount (M, CES 10%, model E2): 1244 µg/g lipid
CED-L, Kidney retinol concentration (M, CES 10%, model E2): 1250 µg/g lipid
CED-L, Liver all-trans RA amount (M, CES 10%, model E2): 76 µg/g lipid
CED-L, Liver all-trans RA concentration (M, CES 10%, model E2): 2233 µg/g lipid
CED-L, Liver retinol amount (M, CES 10%, model E2): 2282 µg/g lipid
CED-L, Liver retinyl esters amount (M, CES 10%, model E2): 1078 µg/g lipid
CED, Kidney retinyl esters amount (M, CES 10%, model E4): 78.3 µg/g lipid
CED, Kidney retinyl esters concentration (M, CES 10%, model E4): 85.2 µg/g lipid
CED, Liver retinol concentration (M, CES 10%, model E4): 66.6 µg/g lipid
CED, Liver retinyl esters concentration (M, CES 10%, model E4): 225 µg/g lipid
CED-L, Kidney retinyl esters amount (M, CES 10%, model E4): 25.2 µg/g lipid
CED-L, Kidney retinyl esters concentration (M, CES 10%, model E4): 27.5 µg/g lipid
CED-L, Liver retinol concentration (M, CES 10%, model E4): 40.0 µg/g lipid
CED-L, Liver retinyl esters concentration (M, CES 10%, model E4): 126 µg/g lipid
Emax (F, model E2, read-out: Maximum response, Kidney all-trans RA amount): 18.2%
Emax (F, model E2, read-out: Maximum response, Kidney all-trans RA concentration): 20.7%
Emax (F, model E2, read-out: Maximum response, Kidney retinol amount): 28%
Emax (F, model E2, read-out: Maximum response, Kidney retinol concentration): 30.7%
Emax (F, model E2, read-out: Maximum response, Liver retinol amount): -18.5%
Emax (F, model E2, read-out: Maximum response, Liver retinol concentration): -43.9%
Emax (F, model E2, read-out: Maximum response, Liver retinyl esters amount): -30.1%
Emax (F, model E2, read-out: Maximum response, Liver retinyl esters concentration): -51.9%
Emax (F, model E2, read-out: Maximum response, Serum retinol concentration): 25%
